Assay results as given in ChEMBL document CHEMBL1201862, “PubChem BioAssay data set” (2004).
The source made the active and inactive calls.

Experiments:
[1] = biological target: Sphingosine 1-phosphate receptor 1 (Homo sapiens, UniProt P21453); assay: Fluorescence-based counterscreen assay for S1P4 agonists: Cell-based dose response high throughput screening assay to identify agonists of the Sphingosine 1-Phosphate Receptor 1 (S1P1). [Related pubchem assays (depositor defined):AID1509, AID1523, AID1801, AID463107, AID463118, AID463119, AID463122, AID463123, AID463129, AID463225, AID504400, AID504460]; type: functional
Sequence of Sphingosine 1-phosphate receptor 1 (P21453 whole entry): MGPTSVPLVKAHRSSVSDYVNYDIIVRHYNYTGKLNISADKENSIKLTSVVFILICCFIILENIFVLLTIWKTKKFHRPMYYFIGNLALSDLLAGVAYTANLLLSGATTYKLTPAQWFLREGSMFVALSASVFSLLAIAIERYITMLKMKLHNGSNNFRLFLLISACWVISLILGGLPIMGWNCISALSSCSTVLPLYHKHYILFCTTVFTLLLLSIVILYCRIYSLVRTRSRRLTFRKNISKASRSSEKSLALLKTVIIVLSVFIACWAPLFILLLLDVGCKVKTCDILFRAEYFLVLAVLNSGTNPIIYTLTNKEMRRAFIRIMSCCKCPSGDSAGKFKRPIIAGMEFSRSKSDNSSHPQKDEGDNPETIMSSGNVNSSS

[2] = tested on: Streptococcus sp. 'group A'; assay: growth inhibition of control SK(-) GAS strain, dose response, counter-screen for streptokinase expression inhibitor project, luminescence, kanamycin, BacTiterGlo, confirmation (AID 1900); type: functional, organism-based
Streptokinase A = biological target: T1, Streptokinase A (Streptococcus pyogenes serotype M1, UniProt P10520); assay: S. pyogenes streptokinase expression inhibitors, potency, dose response, plasminogen activation absorbance, OD405 (AID 1914); type: functional, Streptococcus pyogenes M1 GAS;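 further: secreted streptokinase activity via plasminogen activation per viability signal from cell pellet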
T1 sequence (P10520 whole entry): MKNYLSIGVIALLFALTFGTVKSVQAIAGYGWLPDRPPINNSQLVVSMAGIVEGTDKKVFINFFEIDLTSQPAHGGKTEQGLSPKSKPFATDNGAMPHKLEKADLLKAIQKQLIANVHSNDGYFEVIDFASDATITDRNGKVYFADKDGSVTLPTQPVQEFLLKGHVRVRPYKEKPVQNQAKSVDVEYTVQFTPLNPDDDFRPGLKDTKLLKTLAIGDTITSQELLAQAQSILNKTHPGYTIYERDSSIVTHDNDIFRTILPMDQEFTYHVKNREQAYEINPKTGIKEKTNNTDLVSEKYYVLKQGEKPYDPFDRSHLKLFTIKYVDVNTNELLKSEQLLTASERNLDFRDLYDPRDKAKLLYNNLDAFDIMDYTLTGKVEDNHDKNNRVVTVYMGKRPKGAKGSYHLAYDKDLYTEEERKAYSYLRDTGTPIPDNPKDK

[3] = biological target: T2, Sphingosine 1-phosphate receptor 4 (Homo sapiens, UniProt O95977); assay: Fluorescence dose response cell-based high throughput screening assay for agonists of the Sphingosine 1-Phosphate Receptor 4 (S1P4). [Related pubchem assays: 1509 (Primary screen.), 1523 (Confirmation screen in triplicates.)]; type: functional
T2 sequence (O95977 whole entry): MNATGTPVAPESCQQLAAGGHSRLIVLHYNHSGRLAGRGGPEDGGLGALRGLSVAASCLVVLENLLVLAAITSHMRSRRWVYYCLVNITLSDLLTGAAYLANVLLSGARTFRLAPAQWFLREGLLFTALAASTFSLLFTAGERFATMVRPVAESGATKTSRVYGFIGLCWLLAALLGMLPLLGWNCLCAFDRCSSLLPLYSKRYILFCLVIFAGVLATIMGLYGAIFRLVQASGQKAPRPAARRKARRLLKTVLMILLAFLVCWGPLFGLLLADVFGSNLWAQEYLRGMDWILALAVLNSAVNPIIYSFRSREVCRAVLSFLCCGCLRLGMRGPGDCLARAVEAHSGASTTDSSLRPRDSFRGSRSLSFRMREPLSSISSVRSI

[4] = growth suppression of PTEN-null colon cells, dose response, cell-based, HCT116 PTEN knockout (AID 1047); type: functional;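 further: HCT116 colon tumor cells with PTEN knocked out; cells exposed to compound for 60 hours before readout; potency for loss of cell viability measured by luminescence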
[5] = growth suppression of beta-catenin-knockout colon cells, dose response, cell-based, HCT116, human colon tumor (AID 1045); type: functional;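 further: HCT116 colon tumor cells with beta catenin knocked out; cells exposed to compound for 60 hours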
Streptococcus = assay: Group A Streptococcus viability loss, dose response, counter-screen for streptokinase expression inhibitor project, luminescence, BacTiterGlo (AID 1915); type: functional, organism-based;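 further: potency for reduction of bacterial viability or growth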
[6] = biological target: Sphingosine 1-phosphate receptor 2 (Homo sapiens, UniProt O95136); assay: Dose Response Cell Based Assay for Agonists of the S1P2 Receptor. [Related pubchem assays: 729, 736, 843 ]; type: functional
Sequence of Sphingosine 1-phosphate receptor 2 (O95136 whole entry): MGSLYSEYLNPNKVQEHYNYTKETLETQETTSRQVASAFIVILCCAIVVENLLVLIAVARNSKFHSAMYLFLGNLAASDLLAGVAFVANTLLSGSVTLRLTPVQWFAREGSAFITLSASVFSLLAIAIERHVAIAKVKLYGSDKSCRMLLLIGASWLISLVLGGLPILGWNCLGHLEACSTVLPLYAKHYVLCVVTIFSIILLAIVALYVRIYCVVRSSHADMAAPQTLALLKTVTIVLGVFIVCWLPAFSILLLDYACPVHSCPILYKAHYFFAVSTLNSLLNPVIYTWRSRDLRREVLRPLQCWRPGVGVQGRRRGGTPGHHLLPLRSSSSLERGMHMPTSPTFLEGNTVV

[7] = biological target: Neurotensin receptor type 1 (Homo sapiens, UniProt P30989); type: functional;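 further: Image-based confirmatory dose-response assay measuring agonist activity at NTR1; NTR1-expressing U2OS osteosarcoma cells imaged for beta-arrestin GFP spot formation; agonist potency where compounds increase beta-arrestin recruitment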
Sequence of Neurotensin receptor type 1 (P30989 whole entry): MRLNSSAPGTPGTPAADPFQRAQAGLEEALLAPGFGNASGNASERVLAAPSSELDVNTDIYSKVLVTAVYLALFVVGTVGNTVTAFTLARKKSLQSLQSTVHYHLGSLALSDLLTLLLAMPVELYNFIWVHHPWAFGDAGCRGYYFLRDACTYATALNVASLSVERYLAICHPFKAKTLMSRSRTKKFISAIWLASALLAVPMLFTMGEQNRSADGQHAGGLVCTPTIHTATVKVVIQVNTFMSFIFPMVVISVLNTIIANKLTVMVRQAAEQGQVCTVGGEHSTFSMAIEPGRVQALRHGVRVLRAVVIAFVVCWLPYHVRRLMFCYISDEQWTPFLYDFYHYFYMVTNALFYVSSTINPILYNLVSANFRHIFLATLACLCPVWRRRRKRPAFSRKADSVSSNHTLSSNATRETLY

Vero = assay: cells; type: functional; conditions: Chlorocebus sabaeus
Protein Tat = biological target: T3, Protein Tat (Human immunodeficiency virus type 1 group M subtype B (isolate HXB2)(HIV-1), UniProt P04608); type: functional;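 further: tat binding to TAR RNA read out by fluorescence polarization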
T3 sequence (P04608 whole entry): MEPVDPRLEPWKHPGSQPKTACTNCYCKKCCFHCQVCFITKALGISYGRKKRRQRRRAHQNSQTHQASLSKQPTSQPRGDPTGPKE

[8] = Vero cell cytotoxicity, dose response, cytotoxicity control for Vif-APOBEC3G degradation inhibitor project, Vero cells (AID 1117358); type: functional; conditions: Human immunodeficiency virus 1, Vero
Bcl-2-related protein A1 = biological target: T4, Bcl-2-related protein A1 (Mus musculus, UniProt Q07440); type: functional;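 further: confirmatory dose–response counterscreen on Bfl-1, used to check hits from a UBC13 polyubiquitin inhibitor campaign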
T4 sequence (Q07440 whole entry): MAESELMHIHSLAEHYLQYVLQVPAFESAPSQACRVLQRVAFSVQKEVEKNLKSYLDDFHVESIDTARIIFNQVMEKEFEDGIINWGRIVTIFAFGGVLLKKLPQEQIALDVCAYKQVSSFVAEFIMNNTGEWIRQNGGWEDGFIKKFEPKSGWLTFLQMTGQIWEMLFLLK

[9] = biological target: T5, Ubiquitin-conjugating enzyme E2 N (Homo sapiens, UniProt P61088); type: functional
T5 sequence (P61088 whole entry): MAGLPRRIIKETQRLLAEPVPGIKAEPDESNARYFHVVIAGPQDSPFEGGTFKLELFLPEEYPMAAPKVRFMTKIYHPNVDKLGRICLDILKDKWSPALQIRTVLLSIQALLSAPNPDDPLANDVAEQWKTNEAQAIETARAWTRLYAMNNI

[10] = biological target: T5, Ubiquitin-conjugating enzyme E2 N; type: functional; remark: listed apart in the source

| Compound | EC50 [1] | EC50 [2] | EC50 (Streptokinase A) | EC50 [3] | EC50 [4] | EC50 [5] | EC50 (Streptococcus) | EC50 [6] | EC50 [7] | CC50 (Vero) | IC50 (Protein Tat) | CC50 [8] | IC50 (Bcl-2-related protein A1) | IC50 [9] | IC50 [10] |
| --- | --- | --- | --- | --- | --- | --- | --- | --- | --- | --- | --- | --- | --- | --- | --- |
| NS(=O)(=O)c1ccc(N2N=C(c3ccc(Br)cc3)CC2c2ccc(F)cc2)cc1 (stereo not given) | 2.2 µM (active) | 2.62 µM (active) | > 150 µM (not active) | 3.33 µM (active) | 14.1 µM (active) | 15.4 µM (active) | 5.44 µM (active) | 877 nM (active) | 25 µM (inactive) | 17.1 µM (active) | > 100 µM (active) | > 40 µM (active) | – | – | – |
| CCCCN(CC)CCNC(=O)c1cc2c(=O)n(CC)c3ccccc3c2s1 | – | – | – | – | – | – | – | – | – | – | – | – | > 20 µM (inactive) | 18.1 µM (active) | 5.26 µM (active) |
